Converted amounts (≈) assume the structure as drawn. Where two headings read alike, the source gives them in different places.
Key:
[1] = NIH study: treatment of cocaine abuse; details: humans
[2] = target: T1, CCK-B receptor (Homo sapiens, UniProt P32239); assay: CCK-B receptor antagonism (statement)
T1 sequence (P32239 1-447): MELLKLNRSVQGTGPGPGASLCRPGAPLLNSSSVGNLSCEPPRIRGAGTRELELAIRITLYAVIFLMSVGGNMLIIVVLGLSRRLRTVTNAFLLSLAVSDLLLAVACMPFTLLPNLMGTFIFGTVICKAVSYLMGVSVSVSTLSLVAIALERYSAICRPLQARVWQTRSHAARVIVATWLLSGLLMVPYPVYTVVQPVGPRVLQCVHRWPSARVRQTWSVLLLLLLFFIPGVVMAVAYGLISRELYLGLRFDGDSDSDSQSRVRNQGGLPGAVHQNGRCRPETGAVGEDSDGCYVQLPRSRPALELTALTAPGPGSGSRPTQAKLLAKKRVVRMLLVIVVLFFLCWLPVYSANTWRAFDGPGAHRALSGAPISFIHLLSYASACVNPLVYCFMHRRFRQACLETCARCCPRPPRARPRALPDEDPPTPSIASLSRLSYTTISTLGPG

[3] = Phase I cocaine interaction study: 12-lead ECG; format: in vivo, humans
Experimental: Changes in ECG readings during saline infusion as compared to those taken during cocaine infusions were also reported.
A 12 Lead ECG was scheduled at Pre-Intake Screening, Intake Screening, Discharge and follow-up all of which are non-infusion days. […] All subjects completed the non-infusion ECG's at baseline and discharge.
To evaluate subjects' responses to cocaine infusion, measurements after cocaine 40 mg infusion were compared to those prior to any infusion (reading at −10 min). Readings at 4 min and 40 min were used when the first infusion was cocaine while readings at 64 min and 100 min were used when the second infusion was cocaine. […] The RPR 102681 group also had decreased RR and QT duration from baseline at 40 min post cocaine infusion on day 15. In the placebo group, some scattered significant decreases from baseline were observed including PR duration at 4 min post cocaine on day 8 and RR duration at 4 min post cocaine on day 8 and 15. […] However, the statistical significance might not hold if multiplicity adjustment was performed in these multiple comparisons.

[4] = RPR 102681 plasma concentration by LC/MS/MS; format: in vivo, humans; details: for concentration at 95 min / concentration at 215 min: human, plasma, read-out: mean plasma concentration (3-day average); for concentration at 95 min: 95 minutes post dose; for concentration at 215 min: 215 minutes post dose
Experimental: […] Pharmacokinetics (peak and trough levels) of RPR 102681 during treatment at a dose of 200 mg (day 13), 400 mg (day 20) and 800 mg (day 27) b.i.d. were determined.
The plasma concentration of RPR 102681 was determined with a validated liquid chromatography assay with mass spectrometric detection (LC/MS/MS) at the Department of Biopharmaceutical Sciences, University of California, San Francisco, Calif.
The sample plasma specimens for determining plasma concentration (354 RPR 102681 plasma specimens and 109 Prolactin plasma specimens) were frozen and packed in dry ice upon receipt by the Analytical Division/Drug Studies Unit at South San Francisco, Calif. These samples were kept frozen at approximately −20° C. until analyzed.
Human plasma samples (0.100 mL) were analyzed for RPR 102681 with an LC/MS/MS procedure utilizing a PE Sciex III system equipped with a BDS Hypersil C18 column (4.6×15 mm, 5 μm particle size), a mobile system consisting of acetonitrile:water:trifluoroacetic acid (70:30:0.06) (v/v) with 0.0006% (w/v) ammonium phosphate dibasic; mass spectrometric detection was accomplished with a sample inlet, heated nebulizer, positive ionization by Atmospheric Pressure Chemical Ionization (APCI) and mass scanning by Multiple Reaction Monitoring (MRM) analysis. Sample preparation consisted of precipitation of 0.100 mL of plasma with acetonitrile containing the internal standard (prednisolone acetate) prior to separation by LC/MS/MS. The linear range of the assay was 1.0 to 160 ng/mL, with a lower limit of quantitation of 1.0 ng/mL.
Standard curve and quality control (QC) samples were generated by spiking interference free human plasma samples with known amounts of RPR 102681 and internal standard (IS). These standard curve, assay, and QC samples were processed, then 40 μl aliquots were injected into the LC/MS/MS system for chromatographic separation and subsequent mass spectrometric detection. The peak area ratios of RPR 102681 to IS were calculated for each sample from the measured peak areas obtained by LC/MS/MS. Finally, spiked concentrations and RPR 102681 to IS peak area ratios of the standard curve samples were fit by 1/x weighted least squares linear regression to the equation for the best straight line (y=mx+b, where y=peak area ratio and x=RPR 102681 concentration), and drug concentration in assay sample were calculated by the equation from the RPR 102681 to IS peak area ratios obtained by LC/MS/MS.

[5] = cited from earlier work
[6] = Solubility in organic solvents and aqueous media; format: physicochemical

CC(C(=O)O)c1cccc(NC(=O)NCC(=O)N2C(C(=O)OC(C)(C)C)CSC2c2ccccc2F)c1 [RPR 102681, (2S)-2-{3-[3-({[(2R,4R)-4-tert-Butoxycarbonyl-2-(2-fluorophenyl)]-3-thiazolidinyl}carbonylmethyl)ureido]phenyl}propionic acid]
efficacy in treating cocaine abuse [1]: ineffective | CCK-B receptor antagonism [2]: potent CCK-B receptor antagonist | PR/RR/QT duration following cocaine infusion vs pre infusion ([3]; cocaine 40 mg infusion): seemed to decrease | clinical significance of PR/RR/QT changes ([3]; cocaine 40 mg infusion): not clinically significant | pre infusion RR and QT duration vs intake screening ([3]; days 8, 15, 22, 29): No significant difference | pre infusion PR duration vs intake screening ([3]; days 8, 15, 22, 29, Signed Rank Test): significantly longer | ECG mean values for VR, PR, QT, RR and QRS ([3]; non-infusion days): within normal range | mean plasma concentration at 2-3.5 hours relative to 8-11 hours ([4]; 200 mg dose): approximately 19 times | mean plasma concentration at 2-3.5 hours relative to 8-11 hours ([4]; 400 mg dose): ~15 times | dose-proportionality of plasma concentration ([4]; 400 mg to 800 mg dose range, 95 and 215 minutes post-dose): Severe deviation from dose-proportionality | mean plasma concentration at 2-3.5 hours relative to 8-11 hours ([4]; 800 mg dose): ~8 times | least-squares mean of dose-normalized concentration ([4]; 95 minutes post-dose, day 13, 200 mg): 1.26 ng/mL | least-squares mean of dose-normalized concentration ([4]; 95 minutes post-dose, day 14, 200 mg): 1.12 ng/mL | least-squares mean of dose-normalized concentration ([4]; 95 minutes post-dose, day 15, 200 mg): 1.25 ng/mL | least-squares mean of dose-normalized concentration ([4]; 95 minutes post-dose, day 20, 400 mg): 1.36 ng/mL | least-squares mean of dose-normalized concentration ([4]; 95 minutes post-dose, day 21, 400 mg): 0.87 ng/mL | least-squares mean of dose-normalized concentration ([4]; 95 minutes post-dose, day 22, 400 mg): 1.05 ng/mL | least-squares mean of dose-normalized concentration ([4]; 95 minutes post-dose, day 27, 800 m): 0.78 ng/mL | least-squares mean of dose-normalized concentration ([4]; 95 minutes post-dose, day 28, 800 m): 0.58 ng/mL | least-squares mean of dose-normalized concentration ([4]; 95 minutes post-dose, day 29, 800 m): 0.43 ng/mL | least-squares mean of dose-normalized concentration ([4]; 215 minutes after dose, day 13, 200 mg): 0.70 ng/mL | least-squares mean of dose-normalized concentration ([4]; 215 minutes after dose, day 14, 200 mg): 0.78 ng/mL | least-squares mean of dose-normalized concentration ([4]; 215 minutes after dose, day 15, 200 mg): 0.62 ng/mL | least-squares mean of dose-normalized concentration ([4]; 215 minutes after dose, day 20, 400 mg): 0.58 ng/mL | least-squares mean of dose-normalized concentration ([4]; 215 minutes after dose, day 21, 400 mg): 0.54 ng/mL | least-squares mean of dose-normalized concentration ([4]; 215 minutes after dose, day 22, 400 mg): 0.66 ng/mL | least-squares mean of dose-normalized concentration ([4]; 215 minutes after dose, day 27, 800 mg): 0.42 ng/mL | least-squares mean of dose-normalized concentration ([4]; 215 minutes after dose, day 28, 800 mg): 0.39 ng/mL | least-squares mean of dose-normalized concentration ([4]; 215 minutes after dose, day 29, 800 mg): 0.33 ng/mL | concentration at 95 min ([4]; 200 mg b.i.d. oral): 242 ng/mL | concentration at 95 min ([4]; 400 mg b.i.d. oral): 422 ng/mL | concentration at 95 min ([4]; 800 mg b.i.d. oral): 441 ng/mL | concentration at 215 min ([4]; 200 mg b.i.d. oral): 140 ng/mL | concentration at 215 min ([4]; 400 mg b.i.d. oral): 255 ng/mL | concentration at 215 min ([4]; 800 mg b.i.d. oral): 285 ng/mL | diarrhea ([5]; first clinical study): 2 occurrences | euphoria ([5]; first clinical study): 2 occurrences | headaches ([5]; first clinical study): 3 occurrences | postural hypotension ([5]; first clinical study): 6 occurrences | somnolence ([5]; first clinical study): 3 occurrences | flatulence ([5]; second clinical study): 4 occurrences | headache ([5]; second clinical study): 1 occurrences | pharyngitis ([5]; second clinical study): 4 occurrences | serious adverse events ([5]; two clinical studies in France and two NIH studies): no serious adverse events | solubility ([6]; acetone, organic solvent or mixture): 250 mg/mL (≈ 470 mM) | solubility ([6]; aqueous media, aqueous buffer, pH less than 6): < 1 mg/mL | solubility ([6]; diethyl ether, organic solvent or mixture): 100 mg/mL (≈ 188 mM) | solubility ([6]; dimethylformamide, organic solvent or mixture, dimenthylformamide): 1000 mg/mL (≈ 1880 mM) | solubility ([6]; ethanol, organic solvent or mixture): 1000 mg/mL (≈ 1880 mM) | solubility ([6]; ethyl acetate, organic solvent or mixture): 400 mg/mL (≈ 752 mM) | solubility ([6]; methylene chloride, organic solvent or mixture): 500 mg/mL (≈ 941 mM) | solubility ([6]; sodium phosphate, pH 7.4, aqueous buffer): 20 mg/mL (≈ 37.6 mM) | solubility ([6]; toluene, organic solvent or mixture): 100 mg/mL (≈ 188 mM) | solubility ([6]; water): 0.1 mg/mL (≈ 0.188 mM)

Source: US8592466B2, “Methods for treating conditions caused by higher-than-normal dopaminergic activity in basal ganglia” (Neuropill, Inc., priority 2008, dated 2013)
